Calls of active or inactive are those of the source. No cut-off for these calls is given here.
Legend:
[1] = tested on: Splenocyte; assay: Immunosuppressive activity in BALB/c mouse splenocytes assessed as reduction in LPS-induced mouse B-lymphocytes proliferation incubated for 48 hrs by MTT assay; format: functional, cell-based
[2] = tested on: dengue virus type 3; assay: Antiviral activity against Dengue virus 3 infected in african green monkey Vero cells assessed as reduction in viral protein expression incubated for 48 hrs by indirect immunofluorescence assay; format: functional, organism-based
[3] = Cytotoxicity against African green monkey Vero cells incubated for 48 hrs by DAPI staining based assay; format: toxicity, cell-based; details: chlorocebus sabaeus
[4] = Selectivity index, ratio of CC50 for cytotoxicity against African green monkey Vero cells to EC50 for antiviral activity against Dengue virus 3 infected in african green monkey Vero cells; format: toxicity, cell-based; details: read-out: Ratio CC50/EC50
[5] = tested on: Splenocyte; assay: Immunosuppressive activity in BALB/c mouse splenocyte assessed as reduction in ConA-induced mouse T-lymphocytes proliferation incubated for 48 hrs by MTT assay; format: functional, cell-based
[6] = Cytotoxicity against BALB/c mouse Splenocyte assessed as reduction in cell viability incubated for 48 hrs by MTT assay; format: toxicity, cell-based; details: splenocytes
[7] = Selectivity index, ratio of CC50 for cytotoxicity in BALB/c mouse splenocytes to EC50 for immunosuppressive activity in BALB/c mouse splenocytes assessed as reduction in ConA-induced mouse T-lymphocytes proliferation; format: toxicity, cell-based; details: read-out: Ratio CC50/EC50
[8] = Selectivity index, ratio of CC50 for cytotoxicity in BALB/c mouse splenocytes to EC50 for immunosuppressive activity in BALB/c mouse splenocytes assessed as reduction in LPS-induced mouse B-lymphocytes proliferation; format: toxicity, cell-based; details: read-out: Ratio CC50/EC50
[9] = tested on: Influenza A virus; assay: Antiviral activity against Influenza A virus A/PR/8 (H1N1) infected in MDCK cells assessed as inhibition of viral growth incubated for 48 hrs by indirect immunofluorescence assay; format: functional, organism-based
[10] = Cytotoxicity against MDCK cells assessed as reduction in cell viability incubated for 48 hrs by CellTiter-Glo assay; format: toxicity, cell-based, Canis lupus familiaris; details: dog
[11] = Selectivity index, ratio of CC50 for cytotoxicity against MDCK cells to EC50 for antiviral activity against Influenza A virus A/PR/8 (H1N1) infected in MDCK cells; format: toxicity, cell-based; details: dog, read-out: Ratio CC50/EC50
[12] = tested on: Respiratory syncytial virus; assay: Antiviral activity against Respiratory syncytial virus infected in human HEp-2 cells assessed as inhibition of virus-induced cytopathic effect measured after 6 days by CellTiter-Glo assay; format: functional, organism-based; details: HEp-2, 144 h
[13] = Cytotoxicity against human HEp-2 cells assessed as reduction in cell viability incubated for 6 days by CellTiter-Glo assay; format: toxicity, cell-based; details: time 6 day
[14] = Selectivity index, ratio of CC50 for cytotoxicity against human HEp-2 cells to EC50 for antiviral activity against Respiratory syncytial virus infected in human HEp-2 cells; format: toxicity, cell-based; details: read-out: Ratio CC50/EC50
[15] = tested on: HCT-116; assay: Cytotoxicity against human HCT-116 cells assessed as inhibition of cell growth by MTT assay; format: functional, cell-based
[16] = tested on: HT-29; assay: Cytotoxicity against human HT-29 cells assessed as inhibition of cell growth by MTT assay; format: functional, cell-based
[17] = tested on: A549; assay: Cytotoxicity against human A549 cells assessed as inhibition of cell growth by MTT assay; format: functional, cell-based
[18] = tested on: MCF7; assay: Cytotoxicity against human MCF7 cells assessed as inhibition of cell growth by MTT assay; format: functional, cell-based
[19] = tested on: HeLa; assay: Cytotoxicity against human HeLa cells assessed as inhibition of cell growth by MTT assay; format: functional, cell-based
[20] = tested on: L02; assay: Cytotoxicity against human L02 cells assessed as inhibition of cell growth by MTT assay; format: toxicity, cell-based

Structure (SMILES) | EC50 [1] | EC50 [2] | CC50 at 48 h [3] | selectivity ratio [4] | EC50 [5] | CC50 at 48 h [6] | selectivity ratio [7] | selectivity ratio [8] | EC50 [9] | CC50 at 48 h [10] | selectivity ratio [11] | EC50 [12] | CC50 at 144 h [13] | selectivity ratio [14] | Activity [15] | Activity [16] | Activity [17] | Activity [18] | Activity [19] | Activity [20]
COc1c(C)c2c(c(O)c1C/C=C(\C)CCC(=O)OCCN1CCOCC1)C(=O)OC2 [MYCOPHENOLATE MOFETIL] | 0.48 µM |  |  |  |  |  |  |  |  |  |  |  |  |  |  |  |  |  |  | 
C#C[C@@]1(O)[C@H](O)[C@@H](CO)O[C@H]1n1ccc2c(N)ncnc21 |  | 1100 nM | 74 µM | 67 |  |  |  |  |  |  |  |  |  |  |  |  |  |  |  | 
CC/C=C/C=C/[C@@]1(C)OC(C[C@H](C)[C@]2(C)C(=O)[C@]3(C)C(C)=C[C@H]4[C@]5(C=O)CC[C@H](OC(C)=O)C(C)(C)[C@H]5CC[C@]4(C)[C@]3(C(=O)OC)C2=O)=C(C(=O)OC)C1=O | 8.5 µM |  |  |  | 8.5 µM | 19 µM | 2.2 | 2.2 |  |  |  |  |  |  |  |  |  |  |  | 
NC(=O)c1ncn([C@@H]2O[C@H](CO)[C@@H](O)[C@H]2O)n1 [RIBAVIRIN] |  |  |  |  |  |  |  |  | 4.2 µM | > 300 µM | > 71 | 5.4 µM | 95 µM | 18 |  |  |  |  |  | 
COC(=O)[C@@]12C(=O)[C@](C)(Cc3c(O)c(C)cc(C(C)=O)c3O)C(=O)[C@]1(C)C(C)=C[C@H]1[C@]3(C=O)CC[C@H](OC(C)=O)C(C)(C)[C@H]3CC[C@@]12C | > 50 µM | > 100 µg/mL | 73 µg/mL | < 1 | 19 µM | > 50 µM | > 2.6 |  | 19 µg/mL | > 500 µg/mL | > 26 |  | 43 µg/mL |  | inactive | inactive | inactive | inactive | inactive | Non-Toxic
COC(=O)[C@@]12C(=O)[C@](C)(Cc3c(O)c(C)cc(C(C)=O)c3O)C(=O)[C@]1(C)C(C)=C[C@H]1[C@]3(CO)CC[C@H](OC(C)=O)C(C)(C)[C@H]3CC[C@@]12C | 50 µM |  |  |  | > 50 µM | > 50 µM |  | > 1 |  |  |  |  |  |  | inactive | inactive | inactive | inactive | inactive | Non-Toxic
COC(=O)[C@@]12C(=O)[C@](C)(C(=O)c3cc(OC)c(O)c(O)c3C(C)=O)C(=O)[C@]1(C)C(C)=C[C@H]1[C@]3(C)CC[C@H](OC(C)=O)C(C)(C)[C@H]3CC[C@@]12C | 8.8 µM |  |  |  | 11 µM | 21 µM | 1.9 | 2.4 |  |  |  |  |  |  | inactive | inactive | inactive | inactive | inactive | Non-Toxic
COC(=O)[C@@]12C(=O)[C@](C)(C(=O)c3cc(OC)c(O)c(O)c3C(C)=O)C(=O)[C@]1(C)C(C)=C[C@H]1[C@]3(C=O)CC[C@H](OC(C)=O)C(C)(C)[C@H]3CC[C@@]12C | 23 µM |  |  |  | 23 µM | 44 µM | 1.9 | 1.9 | 14 µg/mL | 114 µg/mL | 8.1 |  |  |  | inactive | inactive | inactive | inactive | inactive | Non-Toxic
CC/C=C/C=C/[C@@]1(C)OC(C[C@@H](C)[C@]2(C)C(=O)[C@]3(C)C(C)=C[C@H]4[C@]5(C=O)CC[C@H](OC(C)=O)C(C)(C)[C@H]5CC[C@]4(C)[C@]3(C(=O)OC)C2=O)=C(C(=O)OC)C1=O | 7.5 µM |  |  |  | 23 µM | 26 µM | 1.1 | 3.5 |  |  |  |  |  |  |  |  |  |  |  | 
COC(=O)C1=C(C[C@@H](C)[C@]2(C)C(=O)[C@]3(C)C(C)=C[C@H]4[C@]5(C=O)CC[C@H](OC(C)=O)C(C)(C)[C@H]5CC[C@]4(C)[C@]3(C(=O)OC)C2=O)O[C@](C)(/C=C/C=C/[C@H](C)O)C1=O | 12 µM |  |  |  | 27 µM | > 50 µM | > 1.9 | > 4.2 |  |  |  |  |  |  | inactive | inactive | inactive | inactive | inactive | Non-Toxic

Reference: ChEMBL document CHEMBL5226374, “Peniandranoids A-E: Meroterpenoids with Antiviral and Immunosuppressive Activity from a Penicillium sp” (J Nat Prod, 2023)
